Format in all cases: biochemical
Common to all, as to conditions: 10 μM compound; NA = not active

Assay [1] concerns the target T1, PKA (catalytic subunit, bovine heart) (Bos taurus, UniProt P00517).
T1 construct: PKA (catalytic subunit, bovine heart, Calbiochem 539486); purchased Calbiochem 539486; host or cells: bovine heart (tissue-derived)
Put plainly: Protein Kinase A inhibition assay (PKA), radioactivity-based. The method, then:
(§1) The ERK2 kinase activity assay utilizes a radioactivity-based format in a 96-well PCR plate with radioactive readout. The ERK2 activity was assayed in a 25 μL assay mixture containing 25 mM HEPES (pH 7.0), 250 μM ATP, […], 1 mM DTT, 2% DMSO, 150 ng/mL Myelin Basic Protein (MBP, Sigma M-1891), and 13.6 ng/mL His tagged ERK2 (specific activity=38.1 nmol/min*mg). Compounds were screened for inhibition of the ERK2 kinase activity at a concentration of 10 μM. The kinase reaction was allowed to proceed at 37° C. for 30 minutes, then reaction was stopped by the addition of 5 μL of 0.5M EDTA (pH 8). 15 μL of each solution were then spotted onto the corresponding square of a filtermat (8×12 glassfibre mat 90×120 mm. PE-Wallac 1450–421). The filtermat was allowed to dry and washed once with 10% TCA, 2% PPA, 500 mM NaCl each for 30 minutes at rt. Two further washings in 10% TCA and 2% PPA for 30 minutes were performed, then a final 30 minute wash in 99% EtOH at rt was done and the filtermat was air dried. The dry filtermat was then placed in a sample bag with a Meltilex sheet (Melt-on scintillator sheets […], PE-Wallac 1450–441 for filtermat A) over the filtermat. The bag was trimmed to fit into the microplate heatsealer (PE-Wallac 1495–021). The heatsealer is used to melt the Meltilex on the filtermat. The bag containing the filtermat and the melted Meltilex was then placed into a filter cassette and counted using the Microbeta Jet Scintillation and Luminescence Counter PE-Wallac 1450.
Inhibition of Protein Kinase A Activity
The PKA kinase activity assay utilizes a radioactivity-based format in a 96-well PCR plate with radioactive readout. The PKA activity was assayed in a 25 μL assay mixture containing 25 mM HEPES (pH 7.0), 250 μM ATP, 10 mM MgCl2, 1 mM DTT, 1 mM EBTA (pH 8), 2% DMSO, 250 ng/mL Histone H2B (Roche 223 514), and 2 ng/mL PKA (catalytic subunit, bovine heart, Calbiochem 539486, specific activity=1170 μmol/min*μg). Compounds were screened for inhibition of the PKA kinase activity at a concentration of 10 μM. The kinase reaction was allowed to proceed at 37° C. for 30 minutes, then the reaction was stopped by addition of 5 μL of 0.5M EDTA (pH 8). The remainder of the protocol is identical to the one reported for ERK2.

In another assay the target is His tagged ERK2 (Homo sapiens, UniProt P28482). Put plainly: Extracellular signal Regulated Kinase 2 inhibition assay (ERK2), radioactivity-based. The method, then: Inhibition of Extracellular Signal Regulated Kinase 2 (ERK 2) Activity
as §1

Another assay relates to PKC (rat brain). In words: Protein Kinase C inhibition assay (PKC), radioactivity-based. The method, then:
as §1
Inhibition of Protein Kinase C Activity
The PKA kinase activity assay utilizes a radioactivity-based format in a 96-well PCR plate with radioactive readout. The PKA activity was assayed in a 25 μL assay mixture containing 25 mM HEPES (pH 7.0), 250 μM ATP, 10 mM MgCl2, 1 mM DTT, 1 mM EDTA (pH 8), 2 mM CaCl2, 2% DMSO, 250 ng/mL Histone H1 (Roche 1 004 875), and 165 ng/mL PKC (rat brain, Calbiochem 539494, specific activity=1600 nmol/min*mg), Compounds were screened for inhibition of the PKC kinase activity at a concentration of 10 μM. The kinase reaction was allowed to proceed at 37° C. for 30 minutes, then the reaction was stopped by addition of 5 μL of 0.5M EDTA (pH 8). The remainder of the protocol is identical to the one reported for ERK2.

A further assay concerns the target T2, GSK3β (Homo sapiens, UniProt P49841).
T2 construct: purchased Upstate Discovery
Put plainly: Glycogen Synthase Kinase 3β inhibition assay, radioactivity-based. The method, then: Inhibition of Glycogen Synthase Kinase 3, Activity
The GSK3, kinase activity assay utilizes a radioactivity-based format in a 96-well PCR plate with radioactive readout. The GSK3β activity was assayed in a 25 μL assay mixture containing 8 mM HEPES (pH 7.0), 250 μM ATP, 0.2 mM EDTA (pH 8), 2% DMSO, 250 ng/mL Myelin Basic Protein (MBP, Sigma M-1891), and 12 ng/mL GSK3 (Upstate Discovery, specific activity=607 nmol/min*GS2 peptide, concentration of 6.05 mg/mL). Compounds were screened for inhibition of the GSK3 P kinase activity at a concentration of 10 μM. The kinase reaction was allowed to proceed at 37° C. for 30 minutes, then the reaction was stopped by addition of 5 μL of 0.5M EDTA (pH 8).

Structures are written as SMILES.

T2 sequence (P49841 whole entry, species assumed): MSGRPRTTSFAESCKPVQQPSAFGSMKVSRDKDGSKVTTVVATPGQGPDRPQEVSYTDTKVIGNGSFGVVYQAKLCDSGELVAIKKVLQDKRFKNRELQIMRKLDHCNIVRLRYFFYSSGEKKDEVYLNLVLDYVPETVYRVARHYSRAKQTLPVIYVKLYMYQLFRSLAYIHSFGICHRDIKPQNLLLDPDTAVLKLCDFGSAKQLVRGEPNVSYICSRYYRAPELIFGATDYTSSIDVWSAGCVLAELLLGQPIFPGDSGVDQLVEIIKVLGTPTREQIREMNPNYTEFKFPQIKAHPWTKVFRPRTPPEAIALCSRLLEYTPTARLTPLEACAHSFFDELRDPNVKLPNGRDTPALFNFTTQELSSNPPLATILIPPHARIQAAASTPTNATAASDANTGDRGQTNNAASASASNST
Sequence of His tagged ERK2 (P28482 whole entry): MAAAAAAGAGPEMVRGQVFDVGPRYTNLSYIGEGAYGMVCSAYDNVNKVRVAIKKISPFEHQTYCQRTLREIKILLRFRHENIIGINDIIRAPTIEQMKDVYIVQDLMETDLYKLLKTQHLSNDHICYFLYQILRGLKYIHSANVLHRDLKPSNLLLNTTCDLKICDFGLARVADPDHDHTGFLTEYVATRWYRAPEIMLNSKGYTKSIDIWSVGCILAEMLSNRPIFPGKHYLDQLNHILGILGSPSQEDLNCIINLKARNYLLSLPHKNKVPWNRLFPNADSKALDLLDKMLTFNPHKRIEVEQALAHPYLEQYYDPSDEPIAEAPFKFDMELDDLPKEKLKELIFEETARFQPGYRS

Consider `O=C1NC(=O)c2c1c1c3ccccc3[nH]c1c1c2c2ccccc2n1C1C=C[C@H](O)C1` (mixture of isomers) [NAD162], for which the inhibition at 10 µM worked out at 19.9% in assay [1], 37.4% on His tagged ERK2 and 61.2% at GSK3β. Besides, the “% Inhibition PKC” value with PKC (rat brain) turned out to be 58.82%.
Regarding `COc1ccc(CN2C(=O)c3c(c4c5ccccc5n(C5CCC(O)CC5)c4c4[nH]c5ccccc5c34)C2=O)cc1` (centres unmarked) [NAD133], the “% Inhibition PKC” value in the assay with PKC (rat brain) was 102.77%.
As to `O=C1NC(=O)c2c1c1c3ccccc3[nH]c1c1c2c2ccccc2n1C1C=C[C@@H](O)C1` (mixture of isomers) [NAD006], the inhibition at 10 µM in assay [1] was 18.8%; at His tagged ERK2, 84.2%; on GSK3β, 83.4%. Besides, the “% Inhibition PKC” value in the assay with PKC (rat brain) is reported as 45.48%.
Regarding `CN1C(=O)c2c(c3c4ccccc4n(C4C[C@H](O)[C@@H](O)[C@H]4O)c3c3[nH]c4ccccc4c23)C1=O` (mixture of isomers) [NAD157], the “% Inhibition PKC” value in the assay on PKC (rat brain) came to 55.37%. The inhibition at 10 µM at GSK3β stood at 20.2%.
Regarding `N[C@@H]1C=CC(n2c3ccccc3c3c4c(c5c6ccccc6[nH]c5c32)C(=O)NC4=O)C1` (mixture of isomers) [NAD116], the inhibition at 10 µM on His tagged ERK2 amounted to 24.3%; on GSK3β it was 18.4%. Also, the “% Inhibition PKC” value in the assay on PKC (rat brain) was 67.47%.
Take `O=C1NC(=O)c2c1c1c3ccccc3[nH]c1c1c2c2ccccc2n1C1CC[C@H](O)[C@@H](O)[C@H]1O` (mixture of isomers) [NAD149]: the inhibition at 10 µM stood at 35.2% in assay [1], 93.3% on His tagged ERK2 and 94.1% at GSK3β. The “% Inhibition PKC” value with PKC (rat brain) was 55.37%.
Take `CC(=O)O[C@H]1C=CC(n2c3ccccc3c3c4c(c5c6ccccc6[nH]c5c32)C(=O)NC4=O)CC1` (mixture of isomers) [NAD106]: the inhibition at 10 µM in assay [1] stood at 17.1%; on His tagged ERK2 it was 53.4%; at GSK3β, 25.4%. Moreover, in the assay on PKC (rat brain), the “% Inhibition PKC” value is recorded as 52.00%.
Turning to `O=C1NC(=O)c2c1c1c3ccccc3[nH]c1c1c2c2ccccc2n1C1C=C[C@H](Nc2ccccc2)CC1` (mixture of isomers) [NAD148], the results for the inhibition at 10 µM (in assay [1]; at His tagged ERK2; at GSK3β) were 26.5%, 41.6% and 54.1%, respectively. Besides, in the assay on PKC (rat brain), the “% Inhibition PKC” value worked out at 111.91%.
Turning to `CCOC(=O)N1C(=O)c2c(c3c4ccccc4n(C4C=C[C@H](NC(C)=O)C4)c3c3[nH]c4ccccc4c23)C1=O` (mixture of isomers) [NAD117], the inhibition at 10 µM on His tagged ERK2 was 60%; on GSK3β it was 25%. Also, the “% Inhibition PKC” value with PKC (rat brain) turned out to be 68.74%.
Consider `CC(=O)O[C@H]1CC(n2c3ccccc3c3c4c(c5c6ccccc6[nH]c5c32)C(=O)NC4=O)[C@H](O)[C@@H]1O` (mixture of isomers) [NAD160], for which the inhibition at 10 µM was 23.3% at His tagged ERK2 and 30.2% at GSK3β. Also, the “% Inhibition PKC” value in the assay with PKC (rat brain) is 72.37%.
As to `O=C1NC(=O)c2c1c1c3ccccc3[nH]c1c1c2c2ccccc2n1C1C=C[C@H](Cl)CC1` (mixture of isomers) [NAD085], the inhibition at 10 µM in assay [1] amounted to 43.4%; at His tagged ERK2 it was 57.2%; on GSK3β it was 52.2%. The “% Inhibition PKC” value in the assay on PKC (rat brain) turned out to be 41.98%.
As to `CC(=O)O[C@@H]1C=CC(n2c3ccccc3c3c4c(c5c6ccccc6[nH]c5c32)C(=O)NC4=O)CC1` (mixture of isomers) [NAD135], the inhibition at 10 µM was found to be 17.3% in assay [1], 43.2% at His tagged ERK2 and 60.8% at GSK3β. Besides, the “% Inhibition PKC” value in the assay with PKC (rat brain) is recorded as 84.32%.
In the case of `N[C@H]1C=CC(n2c3ccccc3c3c4c(c5c6ccccc6[nH]c5c32)C(=O)NC4=O)C1` (mixture of isomers) [NAD040], the values for the inhibition at 10 µM (in assay [1]; at His tagged ERK2; at GSK3β) were 98%, 97.8% and 69.8%, respectively. In the assay with PKC (rat brain), the “% Inhibition PKC” value is given as 81.34%.

As a reminder, the inhibition is the drop in the measured response relative to a control, in per cent.

The values are drawn from patent publication US7262215B2, “N-carbacycle monosubstituted indolocarbazoles as protein kinase inhibitors” (NAD AG, priority 2001, dated 2007).
